Data reported in patent publication EP0152574A1, “6-Ethoxy-4-methyl-benzothiazol-2(3H)-one, processes for its preparation and medicaments containing this compound” (priority 1983, dated 1985).

How the values were obtained:
Hefefieber der Ratte = experiment: Antipyretic action against yeast-induced fever; format: in vivo; set-up: unit not given here; settings: rat, oral, 2 h after dosing; dose lowering yeast fever by 1°C; limits in brackets
Procedure: 2. Die Prüfung der antipyretischen Wirkung erfolgte gegen das durch subcutane Gabe von 100 mg Hefe/100 g Tier ausgelöste Fieber an 120-150 g schweren männlichen Ratten. Die Prüfsubstanzen wurden 4 Stunden nach Hefegabe als Verreibung in l%iger Methylzellulose (1,0 ml/100 g) per Schlundsonde verabfolgt. Aus der 2 Stunden danach gefundenen Veränderung der Rektaltemperatur gegenüber der der Kontrolltiere wurde nach linearer Regressionsanalyse eine ED-1,0°C als jene Dosis berechnet, die das Hefefieber um 1°C senkte.

[1] = test system: Glutathiongehalt der Mäuseleber; experiment: Effect on liver glutathione content (ELLMAN method); format: in vivo, Maus
Procedure: 4.) Der Einfluß auf den Glutathion-Gehalt der Leber wurde an männlichen Mäusen mit einem Gewicht zwischen 25 und 30 g untersucht. 2 Stunden nach oraler Gabe der Prüfsubstanz (als Verreibung in l%iger Methylzellulose, 0,2 ml/10 g Tier) wurde die Leber entnommen.
Für die prognostische Beurteilung einer Hepatotoxizität ist die Erschöpfung der Glutathionvorräte in der Leber ein geeigneter Indikator.

[2] = test system: Entzündungsschmerz der Ratte; experiment: Inflammatory pain test according to RANDALL and SELITTO (yeast-inflamed paw, pain threshold); format: in vivo; settings: 1.5 h; rat, oral, 90 min after dosing; dose raising pain threshold by 50 %; confidence limits in brackets
Procedure: l.) Die Prüfung der Wirkung gegen den Entzündungsschmerz der Ratte erfolgte mit der Methode nach RANDALL u. SELITTO (Arch. int. Pharmacodyn. 111, 409 (1957)). Die Prüfsubstanzen wurden männlichen Ratten mit einem Gewicht zwischen 100 und 130 g als Verreibung in 1%iger Methylzellulose (1,0 ml/100 g Tier) 90 Minuten nach der subplantaren Hefegabe per Schlundsonde verabfolgt. Aus der 90 Minuten nach Gabe der verschiedenen Dosen der Prüfsubstanz gemessenen Schmerzschwelle wurde nach linearer Regressionsanalyse eine ED50 als jene Dosis ermittelt, die eine Anhebung der Schmerzschwelle um 50 % bewirkt.

in vivo = settings: rat, oral, 14 days observation, limits in brackets
Procedure: 3.) Die Bestimmung der akuten Toxizität erfolgte an Ratten beider Geschlechter mit einem Gewicht zwischen 120 und 150 g. Die Prüfsubstanzen wurden als Verreibung in l%iger Methylzellulose (2,0 ml/100 g Tier) per Schlundsonde appliziert. Die Berechnung der LD50 erfolgte nach […] u.

## COc1cc(C)c2[nH]c(=O)sc2c1 [Substanz B, 6-Methoxy-4-methyl-benzothiazol-2(3H)-on]
Hefefieber der Ratte
  ED-1,0 °C: 29,6 (25,0-34,0)
[1]; in vivo, po, 1000 mg/kg
  Verminderung des Leberzellglutathion: > 50%
  red. GSH x̄: 3,42
  Δ gegen Kontrollen: - 56,4%
[2]
  ED50: 23 mg/kg
In vivo
  LD50 at 336 h: 7580 mg/kg

## CCOc1cc(C)c2[nH]c(=O)sc2c1 [Substanz A, 6-Ethoxy-4-methyl-benzothiazol-2(3H)-on]
Hefefieber der Ratte
  ED-1,0 °C: 31,2 (25,1-36,5)
[1]; in vivo, po, 1000 mg/kg
  Verminderung des Leberzellglutathion: deutlich schwächer und unterhalb des kritischen Bereiches
  red. GSH x̄: 5,02
  Δ gegen Kontrollen: - 36,0%
[2]
  ED50: 24.1 mg/kg
In vivo
  LD50 at 336 h: > 4000 mg/kg

## CC(=O)Nc1ccc(O)cc1 [Substanz D, p-Hydroxy-acetanilid]
Hefefieber der Ratte
  ED-1,0 °C: 123 (84,0-155)
[1]; in vivo, po, 160 mg/kg
  Δ gegen Kontrollen: - 32,7%
[1]; in vivo, po, 200 mg/kg
  Δ gegen Kontrollen: - 51,3%
[1]; in vivo, po, 250 mg/kg
  Δ gegen Kontrollen: - 65,7%
[1]; in vivo, po, 315 mg/kg
  Δ gegen Kontrollen: - 82,4%
[2]
  ED50: 215 mg/kg
In vivo
  LD50 at 336 h: 3960 mg/kg

## Cc1cc(C)c2[nH]c(=O)sc2c1 [Substanz C, 4,6-Dimethyl-benzothiazol-2(3H)-on]
Hefefieber der Ratte
  ED-1,0 °C: 18,1 (11,3-23,7)
[1]; mouse liver, 2 h after oral 1000 mg/kg
  red. GSH x̄: 2,90 mMol/g
[1]; single oral dose 1000 mg/kg, mouse, critical range = depletion by more than 50 %
  Verminderung des Leberzellglutathion: > 50%
[2]
  ED50: 49.7 mg/kg
